Results from patent US11814367B2, “Inhibitors of glycogen synthase 1 (GYS1) and methods of use thereof” (Maze Therapeutics, Inc., priority 2021, dated 2023).

What was measured:
[1] = biological target: hGYS1 enzyme (recombinant hGYS1/GN1 protein) (Homo sapiens (Human), UniProt P13807); test: GYS1 coupled enzyme assay (PK/LDH); format: biochemical; conditions: hGYS1/GN1 50 nM, UDP-Glucose 0.8 mM, G6P 1 mM; geometric mean of at least 2 runs
[2] = biological target: hGYS2 enzyme (recombinant hGYS2/GN1 protein) (Homo sapiens (Human), UniProt P54840); test: GYS2 coupled enzyme assay (PK/LDH); format: biochemical; conditions: geometric mean of at least 2 assay runs on separate days, read-out: Avg_IC50
hGYS2 enzyme (recombinant hGYS2/GN1 protein), sequence (P54840 whole entry): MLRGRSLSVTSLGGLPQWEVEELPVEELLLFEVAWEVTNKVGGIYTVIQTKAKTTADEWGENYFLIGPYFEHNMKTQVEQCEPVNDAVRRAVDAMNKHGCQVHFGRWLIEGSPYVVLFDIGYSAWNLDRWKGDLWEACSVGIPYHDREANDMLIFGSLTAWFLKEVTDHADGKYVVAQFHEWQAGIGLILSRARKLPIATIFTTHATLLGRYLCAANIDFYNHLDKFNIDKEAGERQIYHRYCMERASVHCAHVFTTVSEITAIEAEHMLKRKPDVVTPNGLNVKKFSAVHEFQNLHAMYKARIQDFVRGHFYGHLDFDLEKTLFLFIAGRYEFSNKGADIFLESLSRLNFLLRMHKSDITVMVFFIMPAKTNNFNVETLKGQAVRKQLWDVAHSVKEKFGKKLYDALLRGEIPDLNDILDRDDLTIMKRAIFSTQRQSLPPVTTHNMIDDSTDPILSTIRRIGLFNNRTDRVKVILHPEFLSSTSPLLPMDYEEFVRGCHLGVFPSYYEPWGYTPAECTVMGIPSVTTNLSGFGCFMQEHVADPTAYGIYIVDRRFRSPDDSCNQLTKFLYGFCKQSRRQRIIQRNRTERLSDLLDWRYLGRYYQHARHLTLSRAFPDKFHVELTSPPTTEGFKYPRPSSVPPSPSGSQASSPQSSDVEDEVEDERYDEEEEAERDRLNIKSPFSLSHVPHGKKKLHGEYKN
hGYS2 enzyme (recombinant hGYS2/GN1 protein), sequence (P46976 whole entry partner): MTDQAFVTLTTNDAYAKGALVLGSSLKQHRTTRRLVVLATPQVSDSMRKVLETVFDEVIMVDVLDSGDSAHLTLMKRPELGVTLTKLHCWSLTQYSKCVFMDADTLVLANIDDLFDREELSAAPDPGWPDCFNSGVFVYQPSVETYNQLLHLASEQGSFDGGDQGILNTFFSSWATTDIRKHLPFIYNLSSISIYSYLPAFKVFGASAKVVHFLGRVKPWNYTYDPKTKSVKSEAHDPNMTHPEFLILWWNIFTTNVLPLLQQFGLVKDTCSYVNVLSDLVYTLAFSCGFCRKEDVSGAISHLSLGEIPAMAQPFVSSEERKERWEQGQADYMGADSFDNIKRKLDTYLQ
From the text: The GYS2 coupled enzyme assay is a kinetic biochemical assay that indirectly quantifies the rate of glycogen synthesis by coupling the conversion of GYS2 substrate UDP-glucose into UDP with downstream enzymatic reactions. UDP is released from UDP-glucose as glucose monomers are linked into the growing glycogen strand by GYS2. The coupled assay then proceeds with pyruvate kinase utilizing UDP and phospho(enol)pyruvate (PEP) to form pyruvate. Lactate dehydrogenase then converts pyruvate and NADH into lactate and NAD+. Oxidation of NADH to NAD+ can be measured continuously with a plate reader by quantifying the decrease in NADH absorbance at 340 nm over time.
Compounds that inhibit the hGYS2 enzyme and, subsequently, the downstream conversion of NADH to NAD+, were tested using assay ready plates (black, clear bottom 384 well plates) in a final DMSO reaction volume of 2.5% DMSO. The Assay Buffer contained 50 mM Tris pH 7.5, 2 mM MgCl2, and 100 mM KCl. Fresh stocks of BSA at a final concentration of 0.02% and TCEP 1 mM were added before splitting buffer into hGYS2 buffer and substrate buffer. To the hGYS2 buffer, rabbit liver glycogen was added at a final concentration of 0.2% glycogen. Glucose-6-Phosphate was added at 2 mM, recombinant hGYS2/GN1 protein was added at 200 nM to the substrate buffer, phosphoenolpyruvate (PEP) was added at 2 mM, UDP-Glucose was added at 2 mM, NADH was added at 0.6 mM, and Pyruvate Kinase/Lactate Dehydrogenase was added at 20 units/mL. The reaction was initiated by mixing hGYS2 buffer and substrate buffer at a 1:1 ratio. Both buffers were plated using a liquid dispensing device with hGYS2 buffer plated first followed by the substrate buffer. Plates were spun briefly to eliminate air bubbles and are immediately read in continuous mode at an absorbance of 340 nm, for 10 time points in one-minute increments, for a total of 10 minutes. The slope from these 10 time points was normalized to the positive and negative control wells. The duplicate % inhibition values are then averaged and fit to a Hill equation for dose response according to the Levenberg-Marquardt algorithm with the Hill equation maximum set to 100 and the minimum set to 0.
The results are shown in Table 4 below, which reports the IC50 of each compound. Unless otherwise specified, IC50 values are reported as the geometric mean of at least 2 assay runs on separate days. As shown in the table below, the compounds of the present invention are not potent inhibitors of human GYS2. Unless otherwise specified, IC50 values are reported as the geometric mean of at least two assay runs on separate days. Each run represents the average of a technical replicate, where each compound was assayed twice in the same plate. A superscript “#” symbol in Table 4 indicates results from a single assay run.

hGYS1 enzyme (recombinant hGYS1/GN1 protein), sequence (P13807 whole entry): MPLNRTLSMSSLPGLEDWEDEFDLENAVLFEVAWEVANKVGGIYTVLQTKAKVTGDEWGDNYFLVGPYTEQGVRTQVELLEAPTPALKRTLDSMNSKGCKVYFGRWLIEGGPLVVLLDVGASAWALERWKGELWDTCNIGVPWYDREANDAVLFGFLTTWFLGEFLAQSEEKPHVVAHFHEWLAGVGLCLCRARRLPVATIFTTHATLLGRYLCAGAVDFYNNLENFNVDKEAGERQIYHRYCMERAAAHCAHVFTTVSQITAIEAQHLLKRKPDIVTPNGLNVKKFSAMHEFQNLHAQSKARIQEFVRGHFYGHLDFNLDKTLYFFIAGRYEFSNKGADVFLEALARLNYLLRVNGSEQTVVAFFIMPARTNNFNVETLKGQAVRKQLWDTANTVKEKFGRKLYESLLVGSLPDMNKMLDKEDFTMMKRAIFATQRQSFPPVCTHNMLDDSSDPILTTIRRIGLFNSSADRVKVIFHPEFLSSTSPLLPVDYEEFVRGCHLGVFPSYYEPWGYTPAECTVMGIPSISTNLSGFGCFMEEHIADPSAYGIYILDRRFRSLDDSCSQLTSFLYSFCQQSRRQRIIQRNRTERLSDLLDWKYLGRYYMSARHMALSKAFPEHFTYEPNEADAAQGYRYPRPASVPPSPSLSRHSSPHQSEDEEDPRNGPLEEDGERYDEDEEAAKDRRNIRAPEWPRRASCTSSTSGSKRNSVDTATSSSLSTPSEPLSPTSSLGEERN
hGYS1 enzyme (recombinant hGYS1/GN1 protein), sequence (P46976 whole entry partner): as the sequence (P46976 whole entry partner) above

IC50 [1]	IC50 [2]	SMILES
48 nM	> 100000 nM	CC(C)c1ccc([C@@H](NC(=O)[C@@H]2C[C@@H](F)CN2C(=O)Cc2cscn2)c2ccccc2)cc1 [Compound 15, (2S,4R)-4-fluoro-N-[(S)-phenyl[4-(propan-2-yl)phenyl]methyl]-1-[2-(1,3-thiazol-4-yl)acetyl]pyrrolidine-2-carboxamide]
109 nM	> 100000 nM	CC(C)c1ccc([C@@H](NC(=O)[C@@H]2C[C@@H](F)CN2C(=O)Cc2noc3ccccc23)c2ccccc2)cc1 [Compound 119, (2S,4R)-1-[2-(1,2-benzoxazol-3-yl)acetyl]-4-fluoro-N-[(S)-phenyl[4-(propan-2-yl)phenyl]methyl]pyrrolidine-2-carboxamide]
113 nM	> 100000 nM	CC(=O)N1CC2(CCCC2CC(=O)N2C[C@H](F)C[C@H]2C(=O)N[C@@H](c2ccccc2)c2ccc(C(C)C)cc2)C1 (stereo partly drawn) [Compound 7, (2S,4R)-1-(2-{2-acetyl-2-azaspiro[3.4]octan-5-yl}acetyl)-4-fluoro-N-[(S)-phenyl[4-(propan-2-yl)phenyl]methyl]pyrrolidine-2-carboxamide]
243 nM	> 100000 nM	COc1nn(C)cc1C(=O)N1C[C@H](F)C[C@H]1C(=O)N[C@@H](c1ccccc1)c1ccc(C(C)C)cc1 [Compound 61, (2S,4R)-4-fluoro-1-(3-methoxy-1-methyl-1H-pyrazole-4-carbonyl)-N-[(S)-phenyl[4-(propan-2-yl)phenyl]methyl]pyrrolidine-2-carboxamide]
62 nM	> 100000 nM	CC(C)c1ccc([C@@H](NC(=O)[C@@H]2C[C@@H](F)CN2C(=O)Cc2nn[nH]n2)c2ccccc2)cc1 (stereo in doubt) [Compound 223, (2RS,4R)-4-fluoro-N-[(S)-phenyl[4-(propan-2-yl)phenyl]methyl]-1-[2-(2H-1,2,3,4-tetrazol-5-yl)acetyl]pyrrolidine-2-carboxamide]
–	> 100000 nM	CC(C)c1ccc([C@@H](NC(=O)[C@@H]2C[C@@H](F)CN2C(=O)Cc2ncccn2)c2ccccc2)cc1 [Compound 28, (2S,4R)-4-fluoro-N-[(S)-phenyl[4-(propan-2-yl)phenyl]methyl]-1-[2-(pyrimidin-2-yl)acetyl]pyrrolidine-2-carboxamide]
563 nM	–	CC(C)c1ccc([C@@H](NC(=O)[C@@H]2C[C@@H](F)CN2C(=O)c2cc3n(n2)CCCNC3=O)c2ccccc2)cc1 [Compound 131, (2S,4R)-4-fluoro-1-{4-oxo-4H,5H,6H,7H,8H-pyrazolo[1,5-a][1,4]diazepine-2-carbonyl}-N-[(S)-phenyl[4-(propan-2-yl)phenyl]methyl]pyrrolidine-2-carboxamide]
447 nM	–	O=C(N[C@@H](c1ccccc1)c1ccc(C2CC2)c(F)c1)[C@@H]1[C@H]2C[C@H]2CN1C(=O)Cc1cnn[nH]1 [Compound 440, (1S,2S,5R)-N-[(S)-(4-cyclopropyl-3-fluorophenyl)(phenyl)methyl]-3-[2-(1H-1,2,3-triazol-5-yl)acetyl]-3-azabicyclo[3.1.0] hexane-2-carboxamide]
998 nM	–	CC(=O)N1CCC2(CC(C(=O)N3C[C@H](F)C[C@H]3C(=O)N[C@@H](c3ccccc3)c3ccc(C(C)C)cc3)=NO2)C1 (stereo partly drawn) [Compound 4, (2S,4R)-{7-acetyl-1-oxa-2,7-diazaspiro[4.4]non-2-ene-3-carbonyl}-4-fluoro-N-[(S)-phenyl[4-(propan-2-yl)phenyl]methyl]pyrrolidine-2-carboxamide]
2270 nM	–	CC(C)c1c(F)cc(C(NC(=O)[C@@H]2C[C@@H](F)CN2C(=O)Cc2cnn[nH]2)c2ccccc2)cc1F (single isomer, unassigned) [Compound 666, (2S,4R)-N-[(R) or (S)-[3,5-difluoro-4-(propan-2-yl)phenyl](phenyl)methyl]-4-fluoro-1-[2-(1H-1,2,3-triazol-5-yl)acetyl]pyrrolidine-2-carboxamide]
44 nM	–	CC(C)c1ccc([C@@H](NC(=O)[C@@H]2C[C@@H](F)CN2C(=O)Cc2cc[nH]n2)c2ccccc2)cc1 (stereo in doubt) [Compound 225, (2RS,4R)-4-fluoro-N-[(S)-phenyl[4-(propan-2-yl)phenyl]methyl]-1-[2-(1H-pyrazol-3-yl)acetyl]pyrrolidine-2-carboxamide]
95 nM	–	CC(=O)NCC(=O)N1CCC[C@H]1C(=O)N[C@@H](c1ccccc1)c1ccc(C(C)C)cc1 [Compound 212, (2S)-1-(2-acetamidoacetyl)-N-[(S)-phenyl[4-(propan-2-yl)phenyl]methyl]pyrrolidine-2-carboxamide]
303 nM	–	O=C(N[C@@H](c1ccccc1)c1ccc(C2CC2)c(F)c1)[C@@H]1C[C@@H](F)CN1C(=O)Cc1ccon1 [Compound 438, (2S,4R)-N-[(S)-(4-cyclopropyl-3-fluorophenyl)(phenyl)methyl]-4-fluoro-1-[2-(1,2-oxazol-3-yl)acetyl]pyrrolidine-2-carboxamide]
374 nM	–	COC1(CC(=O)N2C[C@H](F)C[C@H]2C(=O)N[C@@H](c2ccccc2)c2ccc(C(C)C)cc2)CN(C(C)=O)C1 [Compound 161, (2S,4R)-1-[2-(1-acetyl-3-methoxyazetidin-3-yl)acetyl]-4-fluoro-N-[(S)-phenyl[4-(propan-2-yl)phenyl]methyl]pyrrolidine-2-carboxamide]
114 nM	–	O=C(N[C@@H](c1ccccc1)c1ccc(C2CC2)c(F)c1)[C@@H]1C[C@@H](F)CN1C(=O)Cc1nnc(C2CC2)o1 [Compound 429, (2S,4R)-1-[2-(5-cyclopropyl-1,3,4-oxadiazol-2-yl)acetyl]-N-[(S)-(4-cyclopropyl-3-fluorophenyl)(phenyl)methyl]-4-fluoropyrrolidine-2-carboxamide]
616 nM	–	O=C(NC(c1ccc(C2CC2)c(F)c1)c1cccc2[nH]c(=O)[nH]c12)[C@@H]1CCCN1C(=O)Cc1cnn[nH]1 (single isomer, unassigned) [Compound 648]
2020 nM	–	Cc1cc(C(C)C)ccc1[C@@H](NC(=O)[C@@H]1C[C@@H](F)CN1C(=O)Cc1ncco1)c1ccccc1 [Compound 663, (2S,4R)-4-fluoro-N-[(S)-[2-methyl-4-(propan-2-yl)phenyl](phenyl)methyl]-1-[2-(1,3-oxazol-2-yl)acetyl]pyrrolidine-2-carboxamide]
1000 nM	–	CC(C)c1ccc([C@@H](NC(=O)[C@@H]2C[C@@H](F)CN2C(=O)c2cccc(-n3cncn3)c2)c2ccccc2)cc1 [Compound 123, (2S,4R)-4-fluoro-N-[(S)-phenyl[4-(propan-2-yl)phenyl]methyl]-1-[3-(1H-1,2,4-triazol-1-yl)benzoyl]pyrrolidine-2-carboxamide]
1160 nM	–	CC(C)c1ccc(C(NC(=O)[C@@H]2C[C@@H](F)CN2C(=O)Cc2cnn[nH]2)c2ccncc2F)cc1F (single isomer, unassigned) [Compound 619, (2S,4R)-4-fluoro-N-[(R) or (S)-[3-fluoro-4-(propan-2-yl)phenyl](3-fluoropyridin-4-yl)methyl]-1-[2-(1H-1,2,3-triazol-5-yl)acetyl]pyrrolidine-2-carboxamide]
321 nM	–	CC(=O)N1C[C@H](F)C[C@H]1C(=O)NC(c1cccc(-c2nnco2)c1)c1ccc(C(C)C)c(F)n1 (single isomer, unassigned) [Compound 700, (2S,4R)-1-acetyl-4-fluoro-N-[(S) or (R)-[6-fluoro-5-(propan-2-yl)pyridin-2-yl][3-(1,3,4-oxadiazol-2-yl)phenyl]methyl] pyrrolidine-2-carboxamide]
780 nM	–	CC(C)c1ccc([C@@H](NC(=O)[C@@H]2CCC3(CC3)N2C(=O)Cc2cnn[nH]2)c2ccccc2)cc1F [Compound 341, (5S)-N-[(S)-[3-fluoro-4-(propan-2-yl)phenyl](phenyl)methyl]-4-[2-(1H-1,2,3-triazol-5-yl)acetyl]-4-azaspiro[2.4]heptane-5-carboxamide]

SMILES	IC50 [1]	IC50 [2]
CC(=O)N1C2CCC1CC(C(=O)N1C[C@H](F)C[C@H]1C(=O)N[C@@H](c1ccccc1)c1ccc(C(C)C)cc1)C2 (stereo partly drawn) [Compound 175, (2S,4R)-1-{8-acetyl-8-azabicyclo[3.2.1]octane-3-carbonyl}-4-fluoro-N-[(S)-phenyl[4-(propan-2-yl)phenyl]methyl]pyrrolidine-2-carboxamide]	582 nM	–
